Experimental data from patent publication US10144705B2 (Commissariat a l'energie atomique et aux energies …, priority 2012, dated 2018).

Assays:
[1] = cited from earlier work
[2] = tested on: in-vitro cell-based BBB model (coculture of glial cells and brain endothelial cells); format: in vitro ADME
Protocol: The in-vitro cell-based BBB model which is used to assess the permeability of fatty esters consists in a coculture of glial cells and brain endothelial cells. A transport buffer (150 mM NaCl, 5.2 mM KCl, 2.2 mM CaCl2, 0.2 mM MgCl2, 6 mM NaHCO3, 2.8 mM glucose and 5 mM Hepes) is added: 1500 μl to the basolateral chamber (which represents the cerebral parenchyma) and 500 μl to the apical chamber (which represents the blood). The fatty esters are introduced in the apical compartment. After 60 min, aliquots are removed from the apical and basolateral chambers for drug-concentration determination. The percentage of drug from the initial dosage that crossed BBB is calculated as follows: P (%)=[(Bf×1500)/(A0×500)]×100 where Bf is the amount of tested compounds in the basolateral compartment at the end point. A0 is the initial amount in the apical compartment at time point 0.

Compound | oral bioavailability [1] | permeability through the blood brain barrier [2] | translocation within brain endothelial cells or in the basal compartment [2]
CN(CC(=O)O)C(=N)N [creatine, 2-1(methylguanidino) acetic acid] | low | – | –
CCOC(=O)CN(C)C(=N)N [C2] | – | not | no translocation
